Assay results: patent publication US12139717B2, “Improving plant regeneration” (KWS SAAT SE & Co. KGaA, priority 2019, dated 2024)
Entries after “also recorded” stand apart in the source; their conditions may differ.

Tests used:
sugar beet leaf explants = assay: Sugar beet callus induction from leaf explants in callus induction medium; assay type: cell-based; set-up: key to Callus induction effect: −: no callus induction effect; +: modest callus induction effect; ++: strong callus induction effect; details: for callus induction in recalcitrant genotype A (FIG. 3): DMSO control
Description: 1. Micropropagated shoots of various proprietary genotypes were used as starting material: Genotypes A and B are recalcitrant to callus induction and plant regeneration. […] Therefore, such calli were never transformable.
Genotype C is less recalcitrant. Shoots were multiplied in MS salts+30 g/l sucrose and 0.25 mg/l benzyladenine (BAP).
2. To induce friable callus, leaf explants were isolated from micropropagated shoots and incubated in callus induction medium (CIM) containing MS salts including 15 g/I sucrose and 2 mg/l BAP at 28° C. for 7 to 8 weeks. […] HP is Hyperphyllin, a small molecule with the chemical formula N-[4-Amino-2-chlorophenyl]-2,4-dichlorobenzamide (CAS #: 42480-64-8).
After incubation period the induction and formation of callus has been analysed. […] There is no significant difference in induction efficiency between these two concentrations.

Arabidopsis thaliana = details: Poretska et al. 2016; cited from earlier work
sugar beet friable calli = assay: Sugar beet shoot induction and plant regeneration from induced calli; assay type: cell-based; details: calli induced with vs without HP
Description: 3. Friable calli of step 2 were harvested from the induction and transferred to the shoot induction medium containing MS salts, 30 g/l sucrose, 1 mg/l GA3 and 1 mg/l Thidiazuron (TDZ). The calli were incubated at 24° C. in the light/dark cycle (16 h/8 h) for 1 to 2 weeks. 4. Regenerated shoots were mounted and cultured in the medium of step 1. The plants are grown at 24° C. in the light/dark cycle (16 h/8 h).

sugar beet callus = assay: Agrobacteria-mediated transformation of HP induced sugar beet callus; assay type: cell-based; details: recalcitrant genotype; 70s::tDT construct; seven days after infection
Description: a. Sugar beet calli were induced as described in steps 1 and 2.
b. Friable calli were mounted in medium containing MS salts, 30 g/l sucrose, 1 mg/l GA3 and 1 mg/l Thidiazuron (TDZ), and kept for 1 week in the dark, 24° C.
c. Agrobacterium AGL-1 harbouring the vector pZFN-nptII-70s::AtGRF5 and pZFN-nptII-70s::tDT was grown in medium (5 g/l tryptone+2.5 g/l yeast extract+1 g/l NaCl+5 g/l mannitol+0.1 g/l MgSO4×7H2O+0.25 g/l KH2PO4+1 g/l glutamic acid, pH 7.0) supplemented with the appropriate antibiotics, at 28° C., for 24 h.
d. Calli were inoculated with Agrobacterium suspension (medium: 440 mg/l CaCl2×2H2O+170 mg/l KH2PO4+1.9 g/l KNO3+180.7 mg/l MgSO4+1.65 g/l NH4NO3+2 mg/l BAP+40 μg/l Acetosyringone+20 g/l sucrose+2 g/l glucose, pH 6.0) at an OD600 of 0.8. The callus tissue and the Agrobacterium were incubated in medium comprising 440 mg/l CaCl2×2H2O, 170 mg/l KH2PO4, 1.9 g/l KNO3, 180.7 mg/l MgSO4, 1.65 g/l NH4NO3, 2 mg/l BAP, 40 μg/l Acetosyringone, 20 g/l sucrose and 2 g/l glucose, at 21° C. for 3 days in the dark.
e. Calli were sub-cultured to medium comprising MS salts, 30 g/l sucrose, 1 mg/l GA3, 1 mg/l TDZ and 500 mg/l Timentin, and incubated in the dark, at 24° C. for 1 week.
f. […]

Compound	callus inducing effect (in words) (sugar beet leaf explants; 30 μM)	Callus induction effect (sugar beet leaf explants; 30 μM dissolved in 2 ml/L DMSO)	Callus induction effect (sugar beet leaf explants; 50 μM dissolved in 2 ml/L DMSO)	leaf formation rate (Arabidopsis thaliana)	callus inducing effect (in words) (sugar beet leaf explants; 50 μM)	callus induction in recalcitrant genotype (FIG. 9) (sugar beet leaf explants; 50 μM as printed in legend, control without HP treatment)	callus inducing effect (in words) (sugar beet leaf explants; 10 μM)	Callus induction effect (sugar beet leaf explants; 10 μM dissolved in 2 ml/L DMSO)	amount of callus tissue induced from leaves (FIG. 5) (sugar beet leaf explants; 30 μM vs control without HP)	callus induction in recalcitrant genotype A (FIG. 3) (sugar beet leaf explants; 30 μM)	callus induction in recalcitrant genotype A (FIG. 3) (sugar beet leaf explants; 50 μM)	callus inducing effect (in words) (sugar beet leaf explants; 100 μM)	Callus induction effect (sugar beet leaf explants; 100 μM dissolved in 2 ml/L DMSO)	Callus induction effect (sugar beet leaf explants; 500 μM dissolved in 2 ml/L DMSO)	Callus induction effect (sugar beet leaf explants; 1 mM dissolved in 2 ml/L DMSO)	callus inducing effect (in words) (sugar beet leaf explants; higher concentration (500 μM, 1 mM))	callus induction efficiency with vs without HP (FIG. 4) (sugar beet leaf explants; recalcitrant genotypes A and B)	plants regenerated from induced callus (FIG. 6) (sugar beet friable calli)	Agrobacterium infection of HP induced callus (FIG. 7) (sugar beet callus)
O=C(Nc1c(F)cccc1F)c1ccc(Cl)cc1 [HP derivate A1]	worked	+	−	enhance leaf formation rate															
O=C(Nc1ccccc1)c1c(F)cccc1Cl [HP derivate A2]	strong callus-inducing effect	++	+	enhance leaf formation rate	weak effect	promotes callus induction													
O=C(Nc1ccccc1)c1ccccc1Cl [HP derivate A3]				enhance leaf formation rate															
Nc1ccc(NC(=O)c2ccc(Cl)cc2Cl)c(Cl)c1 [HP, N-[4-Amino-2-chlorophenyl]-2,4-dichlorobenzamide]	strong callus inducing effect	++	++	enhance leaf formation rate	strong callus inducing effect		modest effect	+	much more amount of callus tissue	dramatically promotes callus induction; also recorded: promotes callus formation	promotes callus formation	modest effect	+	−	−	no effect	boosting effect	More plants could be regenerated	can be infected by agrobacteria
